Test results as given in ChEMBL document CHEMBL1201862, “PubChem BioAssay data set” (2004).
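Cultured in 96-well plates, cells were exposed to test compound for 48 hours across five concentrations. GI50 marks 50% less growth.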 Calls of active or inactive are those of the source. Rule as the data show it: active = GI50 up to about 1.1 µM and inactive = higher.

What was measured:
Assay in all cases: NCI tumour cell line growth inhibition, 48 h
HCC 2998 = tested on: HCC 2998
M14 = tested on: M14
PC-3 = tested on: PC-3
UACC-62 = tested on: UACC-62
SF-539 = tested on: SF-539
SW-620 = tested on: SW-620
COLO 205 = tested on: COLO 205
SR = tested on: SR
OVCAR-4 = tested on: OVCAR-4
MDA-N = tested on: MDA-N
UACC-257 = tested on: UACC-257
MCF7 = tested on: MCF7
TK-10 = tested on: TK-10
Malme-3M = tested on: Malme-3M
ACHN = tested on: ACHN
CAKI-1 = tested on: CAKI-1
RPMI-8226 = tested on: RPMI-8226
HT-29 = tested on: HT-29
A549 = tested on: A549
SK-MEL-5 = tested on: SK-MEL-5
786-0 = tested on: 786-0
LOX IMVI = tested on: LOX IMVI
HOP-92 = tested on: HOP-92
NCI-H522 = tested on: NCI-H522
SF-268 = tested on: SF-268
SK-MEL-28 = tested on: SK-MEL-28
SK-OV-3 = tested on: SK-OV-3
HCT-15 = tested on: HCT-15
NCI-H23 = tested on: NCI-H23
CCRF-CEM = tested on: CCRF-CEM
U-251 = tested on: U-251
NCI-H226 = tested on: NCI-H226
SK-MEL-2 = tested on: SK-MEL-2
SF-295 = tested on: SF-295
EKVX = tested on: EKVX
IGROV-1 = tested on: IGROV-1
MDA-MB-231 = tested on: MDA-MB-231
K562 = tested on: K562
HL-60 = tested on: HL-60
BT-549 = tested on: BT-549
MOLT-4 = tested on: MOLT-4
HCT-116 = tested on: HCT-116
T47D = tested on: T47D
SNB-19 = tested on: SNB-19
Hs-578T = tested on: Hs-578T
MDA-MB-435 = tested on: MDA-MB-435
SNB-75 = tested on: SNB-75
HOP-62 = tested on: HOP-62
OVCAR-8 = tested on: OVCAR-8
A498 = tested on: A498
KM12 = tested on: KM12
OVCAR-3 = tested on: OVCAR-3
NCI-H460 = tested on: NCI-H460
UO-31 = tested on: UO-31
NCI/ADR-RES = tested on: NCI/ADR-RES
RXF 393 = tested on: RXF 393
OVCAR-5 = tested on: OVCAR-5
DU-145 = tested on: DU-145
SN12C = tested on: SN12C

With `O=c1c2cc(O)c(O)cc2oc2cc(O)c(C3OC(CO)C(O)C(O)C3O)c(O)c12` (stereo not given) the GI50 (HCC 2998) was > 100 µM (inactive), the GI50 (M14) was > 100 µM (inactive) and the GI50 (PC-3) was > 100 µM (inactive). The GI50 (UACC-62) was > 100 µM (inactive), the GI50 (SF-539) was > 100 µM (inactive) and the GI50 (SW-620) was > 100 µM (inactive). For the same molecule, the GI50 (COLO 205) was > 100 µM (inactive), the GI50 (SR) was > 100 µM (inactive) and the GI50 (OVCAR-4) was > 100 µM (inactive). The GI50 (MDA-N) was > 100 µM (inactive), the GI50 (UACC-257) was > 100 µM (inactive) and the GI50 (MCF7) was > 100 µM (inactive). For the same molecule, the GI50 (TK-10) was > 100 µM (inactive), the GI50 (Malme-3M) was > 100 µM (inactive) and the GI50 (ACHN) was > 100 µM (inactive). The GI50 (CAKI-1) was > 100 µM (inactive), the GI50 (RPMI-8226) was > 100 µM (inactive) and the GI50 (HT-29) was > 100 µM (inactive). For the same molecule, the GI50 (A549) was > 100 µM (inactive), the GI50 (SK-MEL-5) was > 100 µM (inactive) and the GI50 (786-0) was > 100 µM (inactive). The GI50 (LOX IMVI) was > 100 µM (inactive), the GI50 (HOP-92) was > 100 µM (inactive) and the GI50 (NCI-H522) was > 100 µM (inactive). The GI50 (SF-268) was > 100 µM (inactive), the GI50 (SK-MEL-28) was > 100 µM (inactive) and the GI50 (SK-OV-3) was > 100 µM (inactive). For the same molecule, the GI50 (HCT-15) was > 100 µM, the GI50 (NCI-H23) was > 100 µM (inactive) and the GI50 (CCRF-CEM) was > 100 µM (inactive). For the same molecule, the GI50 (U-251) was > 100 µM (inactive), the GI50 (NCI-H226) was > 100 µM (inactive) and the GI50 (SK-MEL-2) was > 100 µM (inactive). The GI50 (SF-295) was > 100 µM (inactive), the GI50 (EKVX) was > 100 µM (inactive) and the GI50 (IGROV-1) was > 100 µM (inactive). The GI50 (MDA-MB-231) was > 100 µM (inactive), the GI50 (K562) was > 100 µM (inactive) and the GI50 (HL-60) was > 100 µM (inactive). For the same molecule, the GI50 (BT-549) was > 100 µM (inactive), the GI50 (MOLT-4) was > 100 µM (inactive) and the GI50 (HCT-116) was > 100 µM (inactive). The GI50 (T47D) was > 100 µM (inactive), the GI50 (SNB-19) was > 100 µM (inactive) and the GI50 (Hs-578T) was > 100 µM (inactive). For the same molecule, the GI50 (MDA-MB-435) was > 100 µM (inactive), the GI50 (SNB-75) was > 100 µM (inactive) and the GI50 (HOP-62) was > 100 µM (inactive). For the same molecule, the GI50 (OVCAR-8) was > 100 µM (inactive), the GI50 (A498) was > 100 µM (inactive) and the GI50 (KM12) was > 100 µM (inactive). For the same molecule, the GI50 (OVCAR-3) was > 100 µM (inactive), the GI50 (NCI-H460) was > 100 µM (inactive) and the GI50 (UO-31) was > 100 µM (inactive). The GI50 (NCI/ADR-RES) was > 100 µM (inactive), the GI50 (RXF 393) was > 100 µM (inactive) and the GI50 (OVCAR-5) was > 100 µM (inactive).

With `Cc1c(C)c(C)c(CC2(C)CSC2)c(CC2(C)CSC2)c1C` the GI50 (M14) was > 100 µM (inactive), the GI50 (PC-3) was > 100 µM (inactive) and the GI50 (UACC-62) was > 100 µM (inactive). The GI50 (DU-145) was > 100 µM (inactive), the GI50 (SF-539) was > 100 µM (inactive) and the GI50 (SW-620) was > 100 µM (inactive). For the same molecule, the GI50 (COLO 205) was > 100 µM (inactive), the GI50 (SR) was > 100 µM (inactive) and the GI50 (MDA-N) was > 100 µM (inactive). The GI50 (UACC-257) was > 100 µM (inactive), the GI50 (MCF7) was > 100 µM (inactive) and the GI50 (TK-10) was > 100 µM (inactive). For the same molecule, the GI50 (Malme-3M) was > 100 µM (inactive), the GI50 (ACHN) was > 100 µM (inactive) and the GI50 (RPMI-8226) was > 100 µM (inactive). For the same molecule, the GI50 (HT-29) was > 100 µM (inactive), the GI50 (A549) was > 100 µM (inactive) and the GI50 (SK-MEL-5) was > 100 µM (inactive). The GI50 (786-0) was > 100 µM (inactive), the GI50 (LOX IMVI) was > 100 µM (inactive) and the GI50 (HOP-92) was > 100 µM (inactive). For the same molecule, the GI50 (NCI-H522) was > 100 µM (inactive), the GI50 (SF-268) was > 100 µM (inactive) and the GI50 (SK-MEL-28) was > 100 µM (inactive). The GI50 (SK-OV-3) was > 100 µM (inactive), the GI50 (HCT-15) was > 100 µM and the GI50 (CCRF-CEM) was > 100 µM (inactive). For the same molecule, the GI50 (U-251) was > 100 µM (inactive), the GI50 (NCI-H226) was > 100 µM (inactive) and the GI50 (SK-MEL-2) was > 100 µM (inactive). For the same molecule, the GI50 (SF-295) was > 100 µM (inactive), the GI50 (EKVX) was > 100 µM (inactive) and the GI50 (IGROV-1) was > 100 µM (inactive). For the same molecule, the GI50 (MDA-MB-231) was > 100 µM (inactive), the GI50 (K562) was > 100 µM (inactive) and the GI50 (HL-60) was > 100 µM (inactive). The GI50 (BT-549) was > 100 µM (inactive), the GI50 (MOLT-4) was > 100 µM (inactive) and the GI50 (HCT-116) was > 100 µM (inactive). For the same molecule, the GI50 (T47D) was > 100 µM (inactive), the GI50 (SNB-19) was > 100 µM (inactive) and the GI50 (Hs-578T) was > 100 µM (inactive). The GI50 (SNB-75) was > 100 µM (inactive), the GI50 (SN12C) was > 100 µM (inactive) and the GI50 (HOP-62) was > 100 µM (inactive). The GI50 (OVCAR-8) was > 100 µM (inactive), the GI50 (A498) was > 100 µM (inactive) and the GI50 (OVCAR-3) was > 100 µM (inactive). For the same molecule, the GI50 (NCI-H460) was > 100 µM (inactive), the GI50 (UO-31) was > 100 µM (inactive) and the GI50 (NCI/ADR-RES) was > 100 µM (inactive). For the same molecule, the GI50 (RXF 393) was > 100 µM (inactive) and the GI50 (OVCAR-5) was > 100 µM (inactive).
